Experiment in all cases: relative viability (nuclei count vs DMSO), 5 days (fraction); higher = more cells survive
Compound in experiment [1]: COc1cccc2cc(-c3nc([C@H]4CC[C@H](C(=O)O)CC4)n4ncnc(N)c34)[nH]c12 [OSI-027] + CC1(C)CCC(c2ccc(Cl)cc2)=C(CN2CCN(c3ccc(C(=O)NS(=O)(=O)c4ccc(N[C@H](CCN5CCOCC5)CSc5ccccc5)c(S(=O)(=O)C(F)(F)F)c4)cc3)CC2)C1 [Navitoclax] (partner 0.5 µM)
The method in brief: (§1)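 Values are medians from duplicate plates. Each reflects relative viability, defined as the nuclei count of treated wells over that of vehicle wells. Lung cancer cell lines in 1536-well plates were pin-tool dosed one day after seeding with one drug alone or with a fixed anchor-drug dose plus five library-drug doses (not always all listed) in √10 steps, then fixed, stained and imaged at 4× after 5 days.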

Compound in experiment [2]: COc1cccc2cc(-c3nc([C@H]4CC[C@H](C(=O)O)CC4)n4ncnc(N)c34)[nH]c12 [OSI-027] + C[C@@H](Oc1cc(-c2cnn(C3CCNCC3)c2)cnc1N)c1c(Cl)ccc(F)c1Cl [Crizotinib] (partner 1 µM)
A digest of the protocol:
as §1

Compound in experiment [3]: CCCS(=O)(=O)Nc1ccc(F)c(C(=O)c2c[nH]c3ncc(-c4ccc(Cl)cc4)cc23)c1F [Vemurafenib] + NC(=O)Nc1cc(-c2cccc(F)c2)sc1C(=O)N[C@H]1CCCNC1 [AZD7762] (partner 0.2 µM)
The method in brief:
as §1

Compound in experiment [4]: CCCS(=O)(=O)Nc1ccc(F)c(C(=O)c2c[nH]c3ncc(-c4ccc(Cl)cc4)cc23)c1F [Vemurafenib] + Cc1nc(Nc2ncc(C(=O)Nc3c(C)cccc3Cl)s2)cc(N2CCN(CCO)CC2)n1 [Dasatinib] (partner 0.075 µM)
The method in brief: as §1

Regarding HCC-44, the relative viability is 0.966 in experiment [1] (first compound 0.01 µM); 0.982 in experiment [1] (first compound 0.03162 µM); 0.96 in experiment [1] (first compound 0.1 µM); 0.833 in experiment [1] (first compound 0.3162 µM); 0.383 in experiment [1] (first compound 1 µM); 0.819 in experiment [2] (first compound 0.01 µM). In addition, the relative viability turned out to be 0.794 in experiment [2] (first compound 0.03162 µM); 0.817 in experiment [2] (first compound 0.1 µM); 0.737 in experiment [2] (first compound 0.3162 µM); 0.343 in experiment [2] (first compound 1 µM); 0.945 in experiment [3] (first compound 0.03162 µM); 0.975 in experiment [3] (first compound 0.1 µM). Further, the relative viability turned out to be 1.2 in experiment [3] (first compound 0.3162 µM) and 1.03 in experiment [3] (first compound 1 µM).
Regarding NCI-H1623, the relative viability in experiment [4] (first compound 0.03162 µM) came out at 0.565; in experiment [4] (first compound 0.3162 µM), 0.716; in experiment [4] (first compound 1 µM), 0.485.
With COR-L 105, the relative viability in experiment [1] (first compound 0.01 µM) amounted to 0.899; in experiment [1] (first compound 0.03162 µM), 0.782; in experiment [1] (first compound 0.1 µM), 0.886; in experiment [1] (first compound 0.3162 µM) it was 0.636; in experiment [1] (first compound 1 µM), 0.429; in experiment [2] (first compound 0.01 µM), 0.754. In addition, the relative viability in experiment [2] (first compound 0.03162 µM) was determined as 0.741; in experiment [2] (first compound 0.1 µM), 0.766; in experiment [2] (first compound 0.3162 µM), 0.894; in experiment [2] (first compound 1 µM), 0.415; in experiment [4] (first compound 0.03162 µM), 0.317; in experiment [4] (first compound 1 µM), 0.316.
On to COR-L23, for which the relative viability came to 0.988 in experiment [1] (first compound 0.01 µM); 0.782 in experiment [1] (first compound 0.03162 µM); 0.938 in experiment [1] (first compound 0.1 µM); 0.923 in experiment [1] (first compound 0.3162 µM); 0.36 in experiment [1] (first compound 1 µM); 0.688 in experiment [2] (first compound 0.01 µM). In addition, the relative viability in experiment [2] (first compound 0.03162 µM) is 0.549; in experiment [2] (first compound 0.1 µM), 0.674; in experiment [2] (first compound 0.3162 µM), 0.985; in experiment [2] (first compound 1 µM), 0.4; in experiment [4] (first compound 0.03162 µM), 0.423; in experiment [4] (first compound 0.1 µM), 0.503. The relative viability in experiment [4] (first compound 0.3162 µM) worked out at 0.443; in experiment [4] (first compound 1 µM), 0.482.
On to NCI-H1395, for which the relative viability worked out at 1.16 in experiment [1] (first compound 0.01 µM); 0.998 in experiment [1] (first compound 0.03162 µM); 1.03 in experiment [1] (first compound 0.1 µM); 0.85 in experiment [1] (first compound 0.3162 µM); 0.79 in experiment [1] (first compound 1 µM); 0.415 in experiment [4] (first compound 0.03162 µM). Moreover, the relative viability in experiment [4] (first compound 0.1 µM) is 0.411; in experiment [4] (first compound 1 µM) it was 0.403; in experiment [3] (first compound 0.03162 µM) it was 0.397; in experiment [3] (first compound 0.1 µM) it was 0.411; in experiment [3] (first compound 0.3162 µM) it was 0.381; in experiment [3] (first compound 1 µM), 0.373.
NCI-H2023: the relative viability worked out at 0.982 in experiment [1] (first compound 0.01 µM); 0.99 in experiment [1] (first compound 0.03162 µM); 0.964 in experiment [1] (first compound 0.1 µM); 0.708 in experiment [1] (first compound 0.3162 µM); 0.255 in experiment [1] (first compound 1 µM); 0.679 in experiment [2] (first compound 0.01 µM). The relative viability in experiment [2] (first compound 0.03162 µM) is 0.587; in experiment [2] (first compound 0.1 µM) it was 0.614; in experiment [2] (first compound 0.3162 µM), 0.501; in experiment [2] (first compound 1 µM), 0.295; in experiment [4] (first compound 0.03162 µM), 0.507; in experiment [4] (first compound 0.1 µM), 0.506. The relative viability came out at 0.444 in experiment [4] (first compound 0.3162 µM) and 0.489 in experiment [4] (first compound 1 µM).
On to NCI-H2228, for which the relative viability was 0.978 in experiment [1] (first compound 0.01 µM); 1.34 in experiment [1] (first compound 0.03162 µM); 0.81 in experiment [1] (first compound 0.1 µM); 0.303 in experiment [1] (first compound 1 µM); 0.525 in experiment [2] (first compound 0.01 µM); 0.524 in experiment [2] (first compound 0.03162 µM). For the same cell line, the relative viability was found to be 0.485 in experiment [2] (first compound 0.1 µM); 0.239 in experiment [2] (first compound 1 µM); 0.399 in experiment [4] (first compound 0.03162 µM); 0.474 in experiment [4] (first compound 0.1 µM); 0.54 in experiment [4] (first compound 0.3162 µM); 0.502 in experiment [4] (first compound 1 µM).
